Patent US10280134B1, “Potent cytotoxic agent against human hepatocellular carcinoma cell line based on 2-aryl hydrazonopropanal pharmacophore” (King Abdulaziz University, priority 2018, dated 2019)
Values after ≈ are worked out from the molar mass of the structure shown. Read-outs that look alike come from different tables or passages of the source.

What was measured:
[1] = test system: hepatocellular carcinoma cell line HEPG2; test: MTT cytotoxicity assay on human hepatocellular carcinoma cell line HePG2; assay type: cell-based; settings: for IC50 / IC90: Homo sapiens; for Remarks (% lethality at 100 ppm): HEPG2, at 100 ppm; for IC90: read-out: IC90: Lethal concentration of the sample which causes the death of 90% of cells in 48 hrs
Protocol: Cell viability was assessed by the mitochondrial dependent reduction of yellow MTT (3-(4,5-dimethylthiazol-2-yl)-2,5-diphenyl tetrazolium bromide) to purple formazan; Mossman, et al., id.
All procedures were done in a sterile area using a Laminar flow cabinet biosafety class II level (Baker, SG403INT, Sanford, Me., USA).
(§1) Cells were batch cultured for 10 days, then seeded at concentration of 10×10^3 cells/well in fresh complete growth medium in 96-well microtiter plastic plates at 37° C. for 24 h under 5% CO2 using a water jacketed Carbon dioxide incubator (Sheldon, TC2323, Cornelius, Oreg., USA). […] To stop the reaction and dissolving the formed crystals, 200 μL of 10% Sodium dodecyl sulphate (SDS) in deionized water was added to each well and incubated overnight at 37° C.
(§2) A statistical significance was tested between samples and negative control (cells with vehicle) using independent t-test by SPSS 11 program. DMSO is the vehicle used for dissolution of plant extracts and its final concentration on the cells was less than 0.2%. The percentage of change in viability was calculated according to the formula: ((Reading of extract/Reading of negative control)−1)×100.
Samples Tested Against the Human Tumor Cell Line(s): HePG 2 a Human Hepatocellular Carcinoma Cell Line.

[2] = test system: BJ1 (Normal Skin Fibroblast); test: MTT cytotoxicity assay on normal human fibroblast cell line BJ1; assay type: cell-based; settings: for Remarks (% lethality at 100 ppm): BJ1 normal skin fibroblast, 48 hrs; for IC50 / IC90: Homo sapiens, Skin fibroblast, 48 h; for IC50: read-out: IC50: Lethal concentration of the sample which causes the death of 50% of cells in 48 hrs; for IC90: read-out: IC90: Lethal concentration of the sample which causes the death of 90% of cells in 48 hrs
Protocol: The activity of the test compounds on a non-cancerous, normal human fibroblast cell line, BJ1, was assessed by the mitochondrial dependent reduction of yellow MTT (3-(4,5-dimethylthiazol-2-yl)-2,5-diphenyl tetrazolium bromide) to purple formazan; Mosmann T. Rapid colorimetric assays for cellular growth and survival: Application to proliferation and cytotoxicity assays. J Immunol Methods.
All procedures were done in a sterile area using a Laminar flow cabinet biosafety class II level (Baker, SG4031NT, Sanford, Me., USA).
as §1, §2
Data Analysis of Cytotoxic Activity Test. Sample Testing Against the Normal Human Epithelial Cell Line: BJ1 (Normal Skin Fibroblast).

[3] = HEPG2, MTT, 48 hrs, 100 to 0.78 μg/ml, read-out: IC50: Lethal concentration of the sample which causes the death of 50% of cells in 48 hrs
[4] = HEPG2, MTT, 48 hrs, 100 to 0.78 μg/ml

| Structure (SMILES) | IC50 ([1]; HEPG2, positive control, Table 3, Mw = 579.99, read-out: IC50 (positive control)) | Remarks (% lethality at 100 ppm) ([1]; 48 hrs) | IC50 [1, 3] | IC90 [1, 4] | Remarks (% lethality at 100 ppm) [2] | IC50 [2] | IC90 [2] | safety on normal human cell line (in words) ([2]; normal human epithelial cell line (BJ1)) |
| --- | --- | --- | --- | --- | --- | --- | --- | --- |
| COc1cccc2c1C(=O)c1c(O)c3c(c(O)c1C2=O)C[C@@](O)(C(=O)CO)C[C@@H]3O[C@H]1C[C@H](N)[C@H](O)[C@H](C)O1 [Doxorubicin, doxorubicin, reference compound] | 37.8 µM | – | – | – | – | – | – | – |
| COC(=O)c1ccccc1N/N=C(\C=O)C(=O)c1cccs1 [Compound 3] | – | 100% at 100 ppm | 14.7 µg/mL | 26 µg/mL (≈ 82.2 µM) | 80% at 100 ppm | 61 µg/mL (≈ 193 µM) | 105 µg/mL (≈ 332 µM) | – |
| COC(=O)c1ccccc1N/N=C(\C=O)C(C)=O [Compound 2] | – | 100% at 100 ppm | 15.7 µg/mL | 28.3 µg/mL (≈ 114 µM) | 100% at 100 ppm | 16.9 µg/mL (≈ 68.1 µM) | 29.1 µg/mL (≈ 117 µM) | – |
| COC(=O)c1ccccc1N/N=C(\C=O)C(=O)c1ccccc1 [Compound 1] | – | 95.3% at 100 ppm | 45.5 µg/mL | 77.3 µg/mL (≈ 249 µM) | 41.5% at 100 ppm | – | – | substantially safe |
